Reference: patent US9238039B2, “Pyrazolo[1,5-A]pyrimidines for antiviral treatment” (Gilead Sciences, Inc., priority 2010, dated 2016)

System: RSV strain A2
Assay: RSV antiviral cytoprotection assay in Hep2 cells (96-well and 384-well format, Cell TiterGlo read-out)
Assay type: cell-based, Respiratory Syncytial Virus (RSV)
Details: human respiratory syncytial virus; for inhibition at 0.5 µM: HEp-2, 0.5 uM, RSV-induced cytopathic effect in Hep2 cells, calculated from fitted dose response curve, normalized to 0% and 100%; for EC50: HEp-2, RSV-induced cytopathic effects, Hep2 cells, class symbols

SMILES | EC50 | inhibition at 0.5 µM
Cc1cn2nc([C@@H]3CCCCN3C(=O)c3cc(Cl)ccc3NS(C)(=O)=O)cc2nc1N1CCC(N)CC1 [Compound 216] | 0.1 to 100 nM | 100%
Cc1cn2nc([C@@H]3CCCCN3C(=O)c3c(C)cccc3NS(C)(=O)=O)cc2nc1N1CCC1 [Compound 225] | 0.1 to 100 nM | 100%
CC(C)(C)OC(=O)N1CCN(c2cc(C3CC3)nc3cc([C@@H]4CCCCN4C(=O)c4cc(Cl)ccc4NS(C)(=O)=O)nn23)CC1 [Compound 226] | 0.1 to 100 nM | 100%
CS(=O)(=O)Nc1ccc(Cl)cc1C(=O)N1CCCC[C@H]1c1cc2nc(N3CCC3)cc(N3CC[C@H](N)C3)n2n1 [Compound 227] | 0.1 to 100 nM | 100%
CS(=O)(=O)Nc1ccc(Cl)cc1C(=O)N1CCCC[C@H]1c1cc2nc(N3CC[C@@H](C#N)C3)cc(N3CCOCC3)n2n1 [Compound 228] | 0.1 to 100 nM | 100%
Cc1cn2nc([C@@H]3CCCCN3C(=O)c3cc(Cl)ccc3NS(C)(=O)=O)cc2nc1N1CCC[C@@H](N)C1 [Compound 231] | 0.1 to 100 nM | 98%
Cc1cn2nc([C@@H]3CCCCN3C(=O)c3cc(Cl)ccc3NS(C)(=O)=O)cc2nc1N1CC[C@@H](N)C1 [Compound 232] | 0.1 to 100 nM | 100%
CS(=O)(=O)Nc1ccc(Cl)cc1C(=O)N1CCCC[C@H]1c1cc2nc(N3CCC3)cc(N3CCC(N)CC3)n2n1 [Compound 233] | 0.1 to 100 nM | 100%
Cc1cn2nc([C@@H]3CCCCN3C(=O)c3cc(Cl)ccc3NS(C)(=O)=O)cc2nc1NCCNCCO [Compound 235] | 0.1 to 100 nM | 99%
Cc1ccc(NS(C)(=O)=O)c(C(=O)N2CCCC[C@H]2c2cc3nc(C)c(C)c(N4CCCCC4)n3n2)c1 [Compound 236] | 0.1 to 100 nM | 98%
Cc1cc(C2CC2)nc2cc([C@@H]3CCCCN3C(=O)C(NC(=O)OC(C)(C)C)c3ccccc3Br)nn12 (some centres unmarked) [Compound 237] | 0.1 to 100 nM | 99%
Cc1cc(C2CC2)nc2cc([C@@H]3CCCCN3C(=O)C(NC(=O)OC(C)(C)C)c3cccc(Cl)c3)nn12 (some centres unmarked) [Compound 238] | 101 to 1000 nM | 100%
Cc1cc(C2CC2)nc2cc([C@@H]3CCCCN3C(=O)C(c3ccccc3)N(C)C)nn12 (some centres unmarked) [Compound 239] | 101 to 1000 nM | 36%
Cc1cc(C2CC2)nc2cc([C@@H]3CCCCN3C(=O)[C@](C)(NS(C)(=O)=O)c3ccccc3)nn12 [Compound 240] | 101 to 1000 nM | 71%

The next lines start with results.

EC50 | SMILES | inhibition at 0.5 µM
101 to 1000 nM | Cc1cn2nc([C@@H]3CCCCN3C(=O)c3cc(Cl)ccc3NS(C)(=O)=O)cc2nc1N1CCCC(O)C1 (some centres unmarked) [Compound 217] | 89%
101 to 1000 nM | Cc1cn2nc([C@@H]3CCCCN3C(=O)c3cc(Cl)ccc3NS(C)(=O)=O)cc2nc1N1CCC(O)CC1 [Compound 218] | 72%
0.1 to 100 nM | Cc1cn2nc([C@@H]3CCCCN3C(=O)c3cc(Cl)ccc3NC(=O)C3CC3)cc2nc1N1CC[C@H](N)C1 [Compound 219] | 100%
0.1 to 100 nM | COC(=O)Nc1ccc(Cl)cc1C(=O)N1CCCC[C@H]1c1cc2nc(N3CC[C@H](N)C3)c(C)cn2n1 [Compound 220] | 100%
0.1 to 100 nM | CC(=O)Nc1ccc(C)cc1C(=O)N1CCCC[C@H]1c1cc2nc(N3CC(O)C3)c(C)cn2n1 [Compound 221] | 100%
0.1 to 100 nM | CC(=O)Nc1ccc(C)cc1C(=O)N1CCCC[C@H]1c1cc2nc(N3CC(N)C3)c(C)cn2n1 [Compound 222] | 100%
0.1 to 100 nM | CC(=O)Nc1ccc(Cl)cc1C(=O)N1CCCC[C@H]1c1cc2nc(N3CC[C@H](N)C3)c(C)cn2n1 [Compound 223] | 100%
0.1 to 100 nM | CC(=O)Nc1ccc(Cl)cc1C(=O)N1CCCC[C@H]1c1cc2nc(N3CC(O)C3)c(C)cn2n1 [Compound 224] | 100%
